This note sets out measurements from patent publication US20250041267A1, “TREATEMENT FOR CRYOPYRIN ASSOCIATED PERIODIC SYNDROMES (CAPS)” (Zydus Lifesciences Limited, priority 2021, published 2025).

The structures appear in SMILES notation. Read-outs that look alike come from different tables or passages of the source.

Data set [1] in a line: Phase 1 single oral dose pharmacokinetics in healthy subjects (plasma and urine, LC-MS/MS). The class given is in vivo, human. To be noted: for half-life / Cmax / dose excreted: human; for half-life / Cmax: plasma; for half-life: read-out: mean elimination half-life (converted); for dose excreted: urine, read-out: mean cumulative percentage urinary recovery of unchanged compound.

A short description of data set [2]: Phase 1 single oral dose safety and tolerability in healthy subjects. It is filed as in vivo, human. The settings on record: till 100 mg single dose.
Data set [3] has as its system activated THP-1 cells, hPBMCs and whole blood. Description: IL-1β and IL-18 secretion from cells treated with LPS and ATP. It is filed as cell-based, human. On the procedure:
Compound 11, a potent NLRP3 inflammazome inhibitor blocks the IL-1β and IL-18 secretion from activated THP-1 cells, hPBMCs (Human peripheral blood mononuclear cell) and whole blood treated with LPS (lipopolysaccharide) and ATP (Adenosine triphosphate). For the whole blood assay, human peripheral venous blood was collected from healthy volunteers following the protocol approved by ethics committee. Whole blood was distributed in 96-well plates and primed with LPS (500 ng/mL) for 4 hours. Different concentrations of compound 11 was added in the presence of serum free media. NLRP3 inflammasome was induced with ATP (5 mM) for 1 hour. The supernatant was collected at the end of 1 hour and assayed for released IL-1β using the ELISA method. The inhibition in the cytokine levels was plotted and the half maximal inhibitory concentration was derived.

Where [4] appears, read: 25 mg single oral dose, cohort S1.
Where [5] appears, read: 50 mg single oral dose, cohort S2.
Setting [6] is: 100 mg single oral dose, cohort S3.

On to `CN1CCC[C@]1(C)/C=C/S(=O)(=O)NC(=O)Nc1c2c(cc3c1CCC3)CCC2` [Compound 11, (R,E)-2-(1,2-dimethylpyrrolidin-2-yl)-N-((1,2,3,5,6,7-hexahydro-s-indacen-4-yl)carbamoyl)ethene-1-sulfonamide], for which, in data set [1] (setting [4]), the mean plasma clearance turned out to be 0.922 ± 0.01 L/h, the “mean volume of distribution” value came to 8681.147 ± 929.14 mL, the highest level (Cmax) was 3390 ± 720 ng/mL and the half-life is 6.53 ± 0.67 h. The dose excreted in data set [1] (setting [4]) is 93.3%. In addition, in data set [1] (setting [5]), the mean plasma clearance was 1.238 ± 0.22 L/h, the “mean volume of distribution” value stood at 10285.52 ± 1174.32 mL, the highest level (Cmax) was 5720 ± 520 ng/mL and the half-life was 5.82 ± 0.47 h. The dose excreted in data set [1] (setting [5]) was 69.1%. Also, in data set [1] (setting [6]), the mean plasma clearance was determined as 1.099 ± 0.15 L/h, the “mean volume of distribution” value came out at 9847.576 ± 825.72 mL, the half-life is 6.28 ± 0.65 h and the dose excreted is 76.6%. The half-life in data set [1] (oral, across all three doses (25, 50, 100 mg)) was 6 to 6.5 h. Moreover, the safety and tolerability result in data set [2] was “safe and well tolerated”. Moreover, in data set [3], the “IL-1β and IL-18 secretion” value is recorded as “blocks”.

A word on the half-life: it is the time needed for the level to fall by half in the phase considered. The term Cmax denotes the maximum level reached in the sampled fluid or tissue.
